System: LPS-induced INOS activity in J774 cells
Assay: LPS-induced iNOS activity in J774 cells (DAF-2 fluorescence)
Format: cell-based, mouse
Settings: pre-treatment 6 hours prior to and 24 hours subsequent to LPS (typically 1 ug/ml), at sub-nanomolar—nanomolar concentrations
Protocol: In this assay system, lipopolysaccharide (LPS) was used to induce the expression of INOS in the mouse macrophage cell line, J774. […] This reduction in INOS activity correlated with a reduction in LPS-induced INOS mRNA expression.
Specifically, LPS-induced INOS activity was measured using the following assay conditions. J774 cells were seeded at a density of […] per well, in a black, clear-bottomed, 96 well plate, 24 hours prior to use. The cell culture and the drug dilutions were carried out in complete media, which consisted of DMEM (Dulbecco's modification of Eagle's medium) containing foetal calf serum (10%), glutamine (2 mM), penicillin (100 u/ml) and streptomycin (100 μg/ml). The J774 cells were pre-treated with the PPAR delta activators A and B, or vehicle, for 6 hours prior to, and for 24 hours subsequent to the addition of LPS (typically, a concentration of 1 ug/ml of LPS was used). Twenty-four hours after the addition of LPS, INOS activity was measured by the following method. […] After incubation at 37° C. for 3 hours, fluorescence from each well was measured at an excitation wavelength of 485 nm, and an emission wavelength of 530 nm. The ability of LPS to induce INOS activity, in the presence and absence of PPAR delta activators, was then calculated. […]

| Structure (SMILES) | inhibition of LPS-induced INOS activity |
| --- | --- |
| Cc1cc(SCc2sc(-c3ccc(C(F)(F)F)c(F)c3)nc2C)ccc1OCC(=O)O [Compound B, 2-{2-methyl-4-[({4-methyl-2-[3-fluoro-4-(trifluoromethyl)phenyl]-1,3-thiazol-5-yl}methyl)sulfanyl]phenoxy}acetic Acid] | marked inhibition |
| Cc1cc(SCc2sc(-c3ccc(C(F)(F)F)cc3)nc2C)ccc1OCC(=O)O [Compound A, 2-{2-methyl-4-[({4-methyl-2-[4-(trifluoromethyl)phenyl]-1,3-thiazol-5-yl}methyl)sulfanyl]phenoxy}acetic Acid] | marked inhibition |
